In BindingDB's records for doi:10.1016/j.bmcl.2008.12.062 (Bristol-Myers Squibb, 2009):

experiment: Antagonist activity at CCR2 in human PBMCs assessed as inhibition of MCP1-induced chemotaxis

Compound	IC50
Cc1ccc(CNC2CC(N(C)C)CCC2NC(=O)CNC(=O)c2cccc(C(F)(F)F)c2)cc1 (racemic) [(+/-)-N-(2-(4-(dimethylamino)-2-(4-methylbenzylamino)cyclohexylamino)-2-oxoethyl)-3-(trifluoromethyl)benzamide]	12.6 nM
CSc1ccc(C(=O)NC2CC(NC(=O)OCc3ccccc3)CCC2NC(=O)CNC(=O)c2cccc(C(F)(F)F)c2)cc1 (racemic) [(+/-)-benzyl3-(4-(methylthio)benzamido)-4-(2-(3-(trifluoromethyl)benzamido)acetamido)cyclohexylcarbamate]	5.1 nM
COc1ccc(CNC2CC(N(C)C)CCC2NC(=O)CNC(=O)c2cccc(C(F)(F)F)c2)cc1 (racemic) [(+/-)-N-(2-(4-(dimethylamino)-2-(4-methoxybenzylamino)cyclohexylamino)-2-oxoethyl)-3-(trifluoromethyl)benzamide]	41.4 nM

The remaining lines, values ahead:

IC50	Compound
17.4 nM	CC(=O)Nc1ccc(CNC2CC(N(C)C)CCC2NC(=O)CNC(=O)c2cccc(C(F)(F)F)c2)cc1 (racemic) [(+/-)-N-(2-(2-(4-acetamidobenzylamino)-4-(dimethylamino)cyclohexylamino)-2-oxoethyl)-3-(trifluoromethyl)benzamide]
13.5 nM	CSc1ccc(C(=O)NC2CC(N)CCC2NC(=O)CNC(=O)c2cc(C(F)(F)F)ccc2N)cc1 (racemic) [(+/-)-2-amino-N-(2-(4-amino-2-(4-(methylthio)benzamido)cyclohexylamino)-2-oxoethyl)-5-(trifluoromethyl)benzamide]
22.5 nM	CSc1ccc(CNC2CC(N(C)C)CCC2NC(=O)CNC(=O)c2cccc(C(F)(F)F)c2)cc1 (racemic) [(+/-)-N-(2-(4-(dimethylamino)-2-(4-(methylthio)benzylamino)cyclohexylamino)-2-oxoethyl)-3-(trifluoromethyl)benzamide]
23 nM	CN(C)C1CCC(NC(=O)CNC(=O)c2cccc(C(F)(F)F)c2)C(NCc2ccc3[nH]ccc3c2)C1 (racemic) [(+/-)-N-(2-(2-((1H-indol-5-yl)methylamino)-4-(dimethylamino)cyclohexylamino)-2-oxoethyl)-3-(trifluoromethyl)benzamide]
